Earlier results as cited in patent US9687554B2, “Finasteride and minoxidil polymeric nanoparticle its process of preparation, aqueous suspension containing the same, pharmaceutical composition, and its use” (Biolab Sanus Farmaceutica Ltda., priority 2012, dated 2017).

Tested on: men aged 18 to 41 years
Settings: 1 mg daily, end of five years, 1553 men; placebo 75%

Structure (SMILES): CC(C)(C)NC(=O)[C@H]1CC[C@H]2[C@@H]3CC[C@H]4NC(=O)C=C[C@]4(C)[C@H]3CC[C@]12C [finasteride]
- Patients who developed baldness: 10%
